According to paper PMC6825211 (Nature Communications, 2019):
Several values for one entry are separate records, joined by “and”; a condition that tells them apart may be missing. Equal entries are not always repeated.

Columns and labels:
[1] = test system: panel of 50 serine, threonine, and tyrosine kinases; test: Nanosyn panel of 50 biochemical kinase assays; settings: 10 µM, of 50 kinases
GSK-3-BETA = GSK-3-BETA (Homo sapiens, UniProt P49841); test: Nanosyn kinase profiling, mobility shift assay; settings: read-out: % inhibition by neratinib
PDK1 = PDK1 (Homo sapiens, UniProt O15530); test: Nanosyn kinase profiling, mobility shift assay; settings: read-out: % inhibition by neratinib
INS-1E cells [2] = test: Caspase-3 activation Nucview assay, thapsigargin; assay type: cell-based, rat; settings: 0.1 µM thapsigargin, NucView 488
Protocol: Apoptosis was induced after 24 h of compound treatment by 0.1 µM Thapsigargin (Torics, Bristol, United Kingdom) with caspase-3 substrate, Nucview 488 (Biotium, CA) in the treatment.
1 50 Supplementary Figure 3
100 Cell number Cell Number
evaluated through Nucview488 and Hoechst33342.
were analyzed through qRT-PCR.
detected on plate reader.

IGF1R = IGF1R (Homo sapiens, UniProt P08069); test: Nanosyn kinase profiling, mobility shift assay; settings: read-out: % inhibition by neratinib
MST1–LATS2 signaling = test: Western blot of YAP-S127 phosphorylation (MST1/LATS2 overexpression); settings: 10 μM, last 24 h
MAPKAPK-2 = MAPKAPK-2 (Homo sapiens, UniProt P49137); test: Nanosyn kinase profiling, mobility shift assay; settings: read-out: % inhibition by neratinib
ABL1 = ABL1 (Homo sapiens, UniProt P00519); test: Nanosyn kinase profiling, mobility shift assay; settings: read-out: % inhibition by neratinib
MST1 = target: T1, MST1 (Rattus norvegicus, UniProt A0A8I6A0F8); test: CETSA assay; assay type: cell-based; settings: 5 μM, 2 h, INS-1E, 55 °C
T1 construct: endogenous in cells; host or cells: INS-1E (rat beta-cell line)
Protocol: Thereafter, cells were pelleted at 200 g for 4 min and resuspended in PBS supplemented with phosphatase and protease inhibitor cocktail at the cell density of 3 Mill./100 µl. Each cell suspension was distributed into five 0.2-ml PCR tubes with 100 µl of cell suspension per tube. PCR tubes were heated at their designated temperature (43–55 °C) on a thermal cycler for 3 min, incubated at room temperature for 3 min, and snap-frozen in liquid nitrogen. Cell lysates were prepared by freezing–thawing the samples in liquid nitrogen twice, and soluble MST1 was detected by western blot analysis.

AMP-A1B1G1 = AMP-A1B1G1 (Homo sapiens, UniProt Q13131); test: Nanosyn kinase profiling, mobility shift assay; settings: read-out: % inhibition by neratinib
INS-1E cells [3] = test: Western blot of pMST1, caspase-3/PARP cleavage, PDX1, BIM under diabetogenic conditions; assay type: cell-based, rat
Protocol: . pThr183), caspase-3 and PARP cleavage, PDX1, tubulin, and actin were analyzed by western blotting. Representative Western blots and pooled quantitative densitometry analysis are shown from three independent cell line experiments (n = 3). […]; all by Student’s t tests.
. pThr183), caspase-3 and PARP cleavage, and BIM and actin were analyzed by western blotting. Representative Western blots (b) and pooled quantitative densitometry analysis (c) are shown from 3–6 independent culture dishes (n = 3–6). […]; all by Student’s t tests.
Human islets were isolated from eight pancreases of nondiabetic organ donors at PRODO Labs and at Lille University and cultured on extracellular matrix-coated dishes (Novamed, Jerusalem, Israel)[62] or on Biocoat Collagen I coated dishes (#356400, Corning, ME, USA). […] The clonal rat β-cell line INS-1E was kindly provided by Dr. Claes Wollheim, Geneva & Lund University. Human islets were cultured in complete CMRL-1066 (Invitrogen) medium at 5.5 mM glucose, mouse islets and INS-1E cells at complete RPMI-1640 medium at 11.1 mM glucose. […] . Palmitic acid (Sigma) was dissolved at 10 mmol/l in RPMI-1640 medium containing 11% fatty acid–free bovine serum albumin (BSA) (Sigma) under an N2-atmosphere and added to the culture at 0.5 mM[64]. […] . Isolated human islets or INS-1E cells were infected with adenovirus carrying LacZ as control or MST1 or LATS2 (all Vector Biolabs), at a multiplicity of infection of 100 (human islets) or 20 (INS-1E) for 4 h[11]. Adenovirus was subsequently washed off with PBS and replaced by fresh medium with 10% FBS and the respective analysis performed after 48 h post infection.

[4] = test system: obese diabetic Lepr db/db mice; test: db/db model: random fed blood glucose; assay type: in vivo, mouse; settings: for glycemia: dbdb mice
From the text: Data are representative of six mice per group (n = 6 for (a–f)). g–j Mice were killed at day 31. g β-cell mass (given as percentage of the whole pancreatic section from ten sections spanning the width of the pancreas; n = 5 mice/group) and quantitative analyses from triple stainings for (h) TUNEL, (i) Ki67, (j) pHH3, and (k) nuclear PDX1 expression, insulin, and DAPI expressed as percentage of TUNEL-, Ki67-, pHH3-, or nuclear PDX1-positive β-cells ± SEM. An average number of 13667 (h), 5937 (i), 7108 (j), or 4330 (k) β-cells were counted from n = 3–5 (h, i, k) or n = 5–6 (j) mice/group.

MLD–STZ C57BL/6J mice = test: MLD–STZ model: β-cell mass; assay type: in vivo, mouse; design: BCM: unit not given here
Protocol: C57Bl/6J mice were injected with 40 mg/kg streptozotocin or citrate buffer for 5 consecutive days. […] In d, basal glucose values were normalized to 100%. e Insulin secretion measured from retro-orbital blood draw during an ipGTT measured before (0 min) and 15 min after glucose injection; data are expressed as the ratio of secreted insulin at 15 min/0 min (stimulatory index). f The ratio of secreted insulin and glucose is calculated at fed state. g–i Mice were killed at day 35. g β-cell mass (given as percentage of the whole pancreatic section from ten sections spanning the width of the pancreas) and quantitative analyses from triple staining for h TUNEL or i Ki67, insulin, and DAPI expressed as percentage of TUNEL- or Ki67-positive β-cells ±SEM. An average number of 2331 (h), or 26369 (i) β-cells were counted. n = 9 mice/group for (a); n = 4–12 for (b); n = 5–15 for (c) and (d); n = 12–19 for (e); n = 8–14 for (f); n = 4–9 for (g); n = 4–11 for (h); and n = 6–11 mice/groupfor (i); all from three independent experiments).
For morphometric data, ten sections (spanning the width of the pancreas) per mouse were analyzed. Pancreatic tissue area and insulin-positive area were determined by computer-assisted measurements by using a Nikon MEA53200 (Nikon GmbH, Dusseldorf, Germany) microscope, and images were acquired by using NIS-Elements software (Nikon). β-cell mass was obtained by multiplying the β-cell fraction by the weight of the pancreas.

JAK2 = JAK2 (Homo sapiens, UniProt O60674); test: Nanosyn kinase profiling, mobility shift assay; settings: read-out: % inhibition by neratinib
Chain of JAK2 (O60674 whole entry): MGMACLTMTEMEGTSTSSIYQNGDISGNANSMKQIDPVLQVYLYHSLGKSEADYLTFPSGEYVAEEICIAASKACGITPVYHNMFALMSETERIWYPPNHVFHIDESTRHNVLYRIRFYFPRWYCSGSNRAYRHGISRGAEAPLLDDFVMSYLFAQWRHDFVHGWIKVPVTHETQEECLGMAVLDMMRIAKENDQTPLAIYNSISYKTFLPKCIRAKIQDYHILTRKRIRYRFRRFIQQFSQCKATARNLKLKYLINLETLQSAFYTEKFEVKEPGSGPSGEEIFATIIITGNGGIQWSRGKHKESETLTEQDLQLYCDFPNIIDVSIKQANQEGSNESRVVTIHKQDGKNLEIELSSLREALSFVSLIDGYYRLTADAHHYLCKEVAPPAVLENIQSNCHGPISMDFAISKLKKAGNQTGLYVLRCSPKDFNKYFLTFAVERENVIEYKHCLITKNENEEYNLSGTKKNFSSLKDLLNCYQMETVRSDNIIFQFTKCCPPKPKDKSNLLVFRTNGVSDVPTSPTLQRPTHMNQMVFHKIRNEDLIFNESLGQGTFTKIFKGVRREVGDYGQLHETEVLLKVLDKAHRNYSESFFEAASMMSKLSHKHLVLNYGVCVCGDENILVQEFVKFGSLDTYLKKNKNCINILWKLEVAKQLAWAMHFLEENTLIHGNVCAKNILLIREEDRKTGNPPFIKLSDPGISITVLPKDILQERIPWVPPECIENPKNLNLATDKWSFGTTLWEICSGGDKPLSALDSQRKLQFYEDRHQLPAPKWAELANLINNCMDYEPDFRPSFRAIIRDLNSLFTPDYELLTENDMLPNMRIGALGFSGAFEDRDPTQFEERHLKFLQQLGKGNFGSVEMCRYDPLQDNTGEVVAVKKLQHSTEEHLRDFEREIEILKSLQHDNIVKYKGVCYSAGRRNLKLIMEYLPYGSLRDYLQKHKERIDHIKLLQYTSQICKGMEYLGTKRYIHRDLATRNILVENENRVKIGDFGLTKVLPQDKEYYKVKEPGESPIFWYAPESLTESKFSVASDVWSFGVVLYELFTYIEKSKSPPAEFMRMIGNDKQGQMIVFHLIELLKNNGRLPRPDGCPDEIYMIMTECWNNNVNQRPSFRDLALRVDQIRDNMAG

Chain of PDK1 (O15530 whole entry): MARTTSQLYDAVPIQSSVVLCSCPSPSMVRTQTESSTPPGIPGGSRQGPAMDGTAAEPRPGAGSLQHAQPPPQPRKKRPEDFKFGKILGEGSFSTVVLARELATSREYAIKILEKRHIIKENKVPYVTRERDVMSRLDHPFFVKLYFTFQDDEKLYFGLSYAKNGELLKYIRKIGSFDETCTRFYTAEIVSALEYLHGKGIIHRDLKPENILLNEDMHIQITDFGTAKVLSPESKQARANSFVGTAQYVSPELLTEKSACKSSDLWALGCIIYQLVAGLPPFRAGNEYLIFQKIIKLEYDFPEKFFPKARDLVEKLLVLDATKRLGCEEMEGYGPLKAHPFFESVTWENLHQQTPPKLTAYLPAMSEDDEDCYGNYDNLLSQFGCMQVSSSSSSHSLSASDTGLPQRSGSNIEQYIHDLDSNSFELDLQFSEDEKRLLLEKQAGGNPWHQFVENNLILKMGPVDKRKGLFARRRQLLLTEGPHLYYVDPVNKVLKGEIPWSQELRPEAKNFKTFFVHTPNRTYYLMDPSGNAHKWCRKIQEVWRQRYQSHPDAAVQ
Chain of AMP-A1B1G1 (Q13131 whole entry): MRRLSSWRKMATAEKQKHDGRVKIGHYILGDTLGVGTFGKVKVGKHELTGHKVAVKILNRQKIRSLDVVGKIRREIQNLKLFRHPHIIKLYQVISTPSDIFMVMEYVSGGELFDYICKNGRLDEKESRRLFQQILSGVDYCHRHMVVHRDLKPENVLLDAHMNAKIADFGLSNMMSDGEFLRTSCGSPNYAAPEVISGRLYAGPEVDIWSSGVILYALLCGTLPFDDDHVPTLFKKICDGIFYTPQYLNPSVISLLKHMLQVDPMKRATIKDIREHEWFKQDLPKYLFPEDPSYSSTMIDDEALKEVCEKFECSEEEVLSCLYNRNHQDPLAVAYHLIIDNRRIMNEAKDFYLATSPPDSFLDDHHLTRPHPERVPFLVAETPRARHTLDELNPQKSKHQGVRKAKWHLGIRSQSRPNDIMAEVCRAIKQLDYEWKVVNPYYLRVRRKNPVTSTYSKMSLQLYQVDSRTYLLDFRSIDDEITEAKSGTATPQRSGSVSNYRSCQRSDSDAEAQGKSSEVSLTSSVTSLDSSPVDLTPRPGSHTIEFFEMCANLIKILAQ
Chain of AMP-A1B1G1 (Q9Y478 whole entry partner): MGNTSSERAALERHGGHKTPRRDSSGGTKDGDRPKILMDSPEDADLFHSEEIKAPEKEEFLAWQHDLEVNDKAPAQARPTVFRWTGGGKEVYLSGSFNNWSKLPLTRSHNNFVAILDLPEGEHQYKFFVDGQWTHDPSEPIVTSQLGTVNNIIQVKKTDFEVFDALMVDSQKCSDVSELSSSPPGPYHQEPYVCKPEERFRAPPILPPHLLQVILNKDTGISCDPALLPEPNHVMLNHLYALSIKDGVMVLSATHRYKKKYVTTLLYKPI
Chain of AMP-A1B1G1 (P54619 whole entry partner): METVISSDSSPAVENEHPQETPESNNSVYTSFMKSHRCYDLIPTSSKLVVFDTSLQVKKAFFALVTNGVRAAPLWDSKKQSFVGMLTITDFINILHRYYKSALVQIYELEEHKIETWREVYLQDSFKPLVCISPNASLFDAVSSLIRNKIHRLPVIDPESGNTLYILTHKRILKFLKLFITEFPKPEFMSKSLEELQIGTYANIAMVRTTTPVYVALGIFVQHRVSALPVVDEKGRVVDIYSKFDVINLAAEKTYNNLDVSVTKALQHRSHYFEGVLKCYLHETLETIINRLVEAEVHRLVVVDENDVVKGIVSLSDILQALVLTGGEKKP
Chain of GSK-3-BETA (P49841 whole entry): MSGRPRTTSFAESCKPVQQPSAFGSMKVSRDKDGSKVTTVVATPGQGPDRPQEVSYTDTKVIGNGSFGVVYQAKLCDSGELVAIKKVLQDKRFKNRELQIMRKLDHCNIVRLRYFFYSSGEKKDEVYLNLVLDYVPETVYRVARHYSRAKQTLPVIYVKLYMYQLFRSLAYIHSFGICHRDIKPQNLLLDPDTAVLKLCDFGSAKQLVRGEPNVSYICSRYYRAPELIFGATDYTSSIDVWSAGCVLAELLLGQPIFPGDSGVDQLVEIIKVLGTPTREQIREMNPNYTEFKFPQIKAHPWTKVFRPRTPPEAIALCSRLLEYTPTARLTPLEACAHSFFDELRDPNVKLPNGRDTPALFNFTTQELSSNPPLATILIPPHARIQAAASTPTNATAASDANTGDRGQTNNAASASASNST
T1 sequence (A0A8I6A0F8 1-487): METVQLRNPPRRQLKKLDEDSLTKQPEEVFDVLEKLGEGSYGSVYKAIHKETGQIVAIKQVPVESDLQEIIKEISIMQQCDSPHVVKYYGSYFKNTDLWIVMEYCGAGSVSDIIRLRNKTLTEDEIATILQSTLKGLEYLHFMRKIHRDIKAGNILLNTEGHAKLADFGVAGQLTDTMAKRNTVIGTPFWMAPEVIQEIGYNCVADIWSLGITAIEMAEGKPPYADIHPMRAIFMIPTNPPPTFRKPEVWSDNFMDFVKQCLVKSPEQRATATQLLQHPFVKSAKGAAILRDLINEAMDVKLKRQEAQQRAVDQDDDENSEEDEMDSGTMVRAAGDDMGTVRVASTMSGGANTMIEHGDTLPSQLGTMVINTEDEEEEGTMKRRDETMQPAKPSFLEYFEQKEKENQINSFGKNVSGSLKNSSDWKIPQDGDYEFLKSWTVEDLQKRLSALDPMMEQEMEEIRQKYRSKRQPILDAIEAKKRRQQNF
Chain of ABL1 (P00519 whole entry): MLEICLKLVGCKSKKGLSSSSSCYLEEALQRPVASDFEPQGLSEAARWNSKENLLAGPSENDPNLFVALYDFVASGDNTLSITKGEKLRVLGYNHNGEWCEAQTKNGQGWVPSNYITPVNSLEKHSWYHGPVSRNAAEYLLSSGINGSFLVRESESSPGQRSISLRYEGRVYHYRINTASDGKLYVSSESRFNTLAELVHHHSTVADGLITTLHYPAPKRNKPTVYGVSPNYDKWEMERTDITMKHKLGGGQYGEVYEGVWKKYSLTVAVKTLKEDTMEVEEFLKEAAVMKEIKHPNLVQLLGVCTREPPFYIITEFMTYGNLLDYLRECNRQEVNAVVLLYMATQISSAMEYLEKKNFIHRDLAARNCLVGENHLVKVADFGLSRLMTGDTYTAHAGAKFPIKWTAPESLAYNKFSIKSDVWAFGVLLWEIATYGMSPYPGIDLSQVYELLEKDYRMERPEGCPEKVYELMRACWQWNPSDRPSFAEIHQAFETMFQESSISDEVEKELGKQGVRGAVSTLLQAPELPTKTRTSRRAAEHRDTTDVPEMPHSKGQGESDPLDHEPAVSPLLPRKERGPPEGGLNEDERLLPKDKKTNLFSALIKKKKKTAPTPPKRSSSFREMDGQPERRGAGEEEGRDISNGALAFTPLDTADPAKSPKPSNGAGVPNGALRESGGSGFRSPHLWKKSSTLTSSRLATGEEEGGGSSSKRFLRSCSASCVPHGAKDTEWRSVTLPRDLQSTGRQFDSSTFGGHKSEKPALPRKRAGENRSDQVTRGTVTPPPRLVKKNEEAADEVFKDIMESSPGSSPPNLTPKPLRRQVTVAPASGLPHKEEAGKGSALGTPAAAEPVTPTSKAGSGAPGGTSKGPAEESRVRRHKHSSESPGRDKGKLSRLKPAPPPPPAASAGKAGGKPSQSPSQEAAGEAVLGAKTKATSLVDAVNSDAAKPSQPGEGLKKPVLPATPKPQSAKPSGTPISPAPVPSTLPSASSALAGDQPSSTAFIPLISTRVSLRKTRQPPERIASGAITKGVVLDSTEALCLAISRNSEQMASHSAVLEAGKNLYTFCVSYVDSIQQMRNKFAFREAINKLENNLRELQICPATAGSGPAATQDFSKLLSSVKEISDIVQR

Q: What does the source list for `CCOc1cc2ncc(C#N)c(Nc3ccc(OCc4ccccn4)c(Cl)c3)c2cc1NC(=O)/C=C/CN(C)C` [neratinib]?
A: number of kinases with >50% of inhibition [1]: 16; inhibition at 10 µM (GSK-3-BETA): 23%; inhibition at 10 µM (PDK1): 6%; caspase-3 activation induced by thapsigargin (INS-1E cells [2]): dose-dependently abolished; inhibition at 10 µM (IGF1R): 37%; MST1/LATS2-induced YAP-S127 phosphorylation (MST1–LATS2 signaling): strongly inhibited; inhibition at 10 µM (MAPKAPK-2): 7%; inhibition at 10 µM (ABL1): 36%; thermal stabilization of MST1 in intact cells (MST1): MST1 stabilization at 55 °C; inhibition at 10 µM (AMP-A1B1G1): 11%; PDX1 expression reduced by elevated glucose (INS-1E cells [3]; 22.2 mM glucose, 72 h): restored PDX1 expression; H2O2- and high glucose/palmitate-induced MST1 activation and apoptosis (caspase-3 and PARP cleavage) (INS-1E cells [3]; 72 h): potently inhibited; mitochondrial BIM induction under diabetic conditions (INS-1E cells [3]; HG/Pal, 10 μM, 24 h): significantly reduced; stress-induced MST1 activation and caspase-3 and PARP cleavage (INS-1E cells [3]; HG/Pal, 10 μM, 24 h): strongly counteracted; blood glucose, start to after 30 days of therapy ([4]; db/db neratinib group, no significant increase): 312 to 384 mg/dL; blood glucose levels after 4 weeks ([4]; db/db, 5 mg/kg i.p. daily): did not significantly increase; glycemia ([4]; 0 days after NERA injection, MEAN): 311.667 mg/dL; glycemia ([4]; 0 days after NERA injection, individual mice): 219 mg/dL and 243 mg/dL and 260 mg/dL and 443 mg/dL and 266 mg/dL and 439 mg/dL; glycemia ([4]; 31 days after NERA injection, individual mice): 405 mg/dL and 313 mg/dL and 425 mg/dL and 317 mg/dL and 380 mg/dL and 462 mg/dL; BCM (MLD–STZ C57BL/6J mice; NeraCtr group (no STZ), MEAN): 1.179; BCM (MLD–STZ C57BL/6J mice; NeraCtr group (no STZ), individual mice): 1.212 and 1.511 and 1.035 and 0.9571; BCM (MLD–STZ C57BL/6J mice; NeraSTZ group, MEAN): 0.6212; BCM (MLD–STZ C57BL/6J mice; NeraSTZ group, individual mice): 1.314 and 0.4366 and 0.7768 and 0.269 and 0.7149 and 0.2555 and 0.5691 and 0.3836 and 0.8706; β-cell mass (MLD–STZ C57BL/6J mice; STZ mice, day 35): restored β-cell mass; inhibition at 10 µM (JAK2): 18%
